Assay results published in US20200108070A2, “INHIBITORS OF FIBROBLAST GROWTH FACTOR RECEPTOR AND USE THEREOF” (Nanjing TransThera Biosciences Co. Ltd., priority 2016, published 2020).

Legend:
FGFR1 = FGFR1 (Homo sapiens, UniProt P11362); test: Enzymatic activity test (LabChip EZ Reader II / Caliper), FGFR1; assay type: biochemical; details: FGFR1(h), FAM-labelled polypeptide substrate and ATP, 30 min incubation; read-out: Inhibitory activity against FGFR (IC50) FGFR1
Procedure: (§1) Experimental Example 1: Enzymatic Activity Test of the Compounds of the Present Invention
(§2) Test substance: The compounds of the present invention, the structures of which are shown above.
(§3) Test Instrument: The LabChip EZ Reader II drug screening platform.
(§4) 1. Preparation for compound plate a) 96-well plates, 10 dose groups, 3-fold serial dilutions, added DMSO to each well, maximal concentration of 500 μM. b) 384-well plates, diluted with 1× kinase buffer (50 mM HEPES, pH 7.5; 0.0015% Brij-35; 2 mM DTT), each well containing 5× compound dissolved in 5 μL of 10% DMSO. The negative control well was 5 μL of 1× kinase buffer containing 10% DMSO. 2. Experimental procedure
(§5) […] in 1× kinase buffer were reacted with 2.5× enzyme solution at room temperature for 10 min, and then the FAM-labelled polypeptide substrate and ATP were added to initiate reaction. After incubation for 30 min, 25 μL of terminal solution (100 mM HEPES, pH 7.5; 0.015% Brij-35; 0.2% Coating Reagent #3; 50 mM EDTA) was added to terminate the reaction, and the final data were read by Caliper.

FGFR2 = FGFR2 (Homo sapiens, UniProt P21802); test: Enzymatic activity test (LabChip EZ Reader II / Caliper), FGFR2; assay type: biochemical; details: FGFR2(h), FAM-labelled polypeptide substrate and ATP, 30 min incubation; read-out: Inhibitory activity against FGFR (IC50) FGFR2
Procedure: as §1, §2, §3, §4, §5

FGFR3 = FGFR3 (Homo sapiens, UniProt P22607); test: Enzymatic activity test (LabChip EZ Reader II / Caliper), FGFR3; assay type: biochemical; details: FGFR3(h), FAM-labelled polypeptide substrate and ATP, 30 min incubation; read-out: Inhibitory activity against FGFR (IC50) FGFR3
Procedure: as §1, §2, §3, §4, §5

FGFR4 = FGFR4 (Homo sapiens, UniProt P22455); test: Enzymatic activity test (LabChip EZ Reader II / Caliper), FGFR4; assay type: biochemical; details: FGFR4(h), FAM-labelled polypeptide substrate and ATP, 30 min incubation; read-out: Inhibitory activity against FGFR (IC50) FGFR4
Procedure: as §1, §2, §3, §4, §5

Hep3B = test: Cellular activity test (Cell titer-Glo), Hep3B; assay type: cell-based; details: Homo sapiens, hepatocellular carcinoma cell with abnormal FGFR, 72 h, read-out: Inhibitory activity against cells (IC50) Hep3B
Source text: (§6) Experimental Example 2: Celluar Activity Test of the Compounds of the Present Invention
(§7) Hep3B is a cell with abnormal FGFR in hepatocellular carcinoma RT112/84 is a cell with abnormal FGFR in bladder cancer DMS114 is a cell with abnormal FGFR in small cell lung cancer AN3CA is a cell with abnormal FGFR in endometrial cancer SNU-16 is a cell with abnormal FGFR in gastric cancer
as §2
(§8) Test instrument: The Espire multi-function microplate reader.
(§9) Each cell line was seeded into a 96-well plate, and adherent cultured overnight. Then, the compounds at different concentrations (12 dose groups, 3× DMSO serial dilutions) were added to a final concentration of 0.17-30000 nM, with the final content of DMSO of 5‰. The negative control well was medium containing 5‰ DMSO. After incubation at 37° C., 5% CO2, 95% humidity for 72 h, the cultures would be test. 30 μL of Cell titer-Glo reagent was added to each well and incubated for 30 min at room temperature. The final data were read by Espire microplate reader.

RT112/84 = test: Cellular activity test (Cell titer-Glo), RT112/84; assay type: cell-based; details: Homo sapiens, RT112/84, bladder cancer cell with abnormal FGFR, 72 h, read-out: Inhibitory activity against cells (IC50) RT112/84
Source text: as §6, §7, §2, §8, §9

DMS114 = test: Cellular activity test (Cell titer-Glo), DMS114; assay type: cell-based; details: Homo sapiens, DMS-114, DMS114, small cell lung cancer cell with abnormal FGFR, 72 h, read-out: Inhibitory activity against cells (IC50) DMS114
Source text: as §6, §7, §2, §8, §9

AN3CA = test: Cellular activity test (Cell titer-Glo), AN3CA; assay type: cell-based; details: Homo sapiens, AN3-CA, endometrial cancer cell with abnormal FGFR, 72 h, read-out: Inhibitory activity against cells (IC50) AN3CA
Source text: as §6, §7, §2, §8, §9

SNU-16 = test: Cellular activity test (Cell titer-Glo), SNU-16; assay type: cell-based; details: Homo sapiens, SNU-16, gastric cancer cell with abnormal FGFR, 72 h, read-out: Inhibitory activity against cells (IC50) SNU-16
Source text: as §6, §7, §2, §8, §9

Chain of FGFR1 (P11362 22-822): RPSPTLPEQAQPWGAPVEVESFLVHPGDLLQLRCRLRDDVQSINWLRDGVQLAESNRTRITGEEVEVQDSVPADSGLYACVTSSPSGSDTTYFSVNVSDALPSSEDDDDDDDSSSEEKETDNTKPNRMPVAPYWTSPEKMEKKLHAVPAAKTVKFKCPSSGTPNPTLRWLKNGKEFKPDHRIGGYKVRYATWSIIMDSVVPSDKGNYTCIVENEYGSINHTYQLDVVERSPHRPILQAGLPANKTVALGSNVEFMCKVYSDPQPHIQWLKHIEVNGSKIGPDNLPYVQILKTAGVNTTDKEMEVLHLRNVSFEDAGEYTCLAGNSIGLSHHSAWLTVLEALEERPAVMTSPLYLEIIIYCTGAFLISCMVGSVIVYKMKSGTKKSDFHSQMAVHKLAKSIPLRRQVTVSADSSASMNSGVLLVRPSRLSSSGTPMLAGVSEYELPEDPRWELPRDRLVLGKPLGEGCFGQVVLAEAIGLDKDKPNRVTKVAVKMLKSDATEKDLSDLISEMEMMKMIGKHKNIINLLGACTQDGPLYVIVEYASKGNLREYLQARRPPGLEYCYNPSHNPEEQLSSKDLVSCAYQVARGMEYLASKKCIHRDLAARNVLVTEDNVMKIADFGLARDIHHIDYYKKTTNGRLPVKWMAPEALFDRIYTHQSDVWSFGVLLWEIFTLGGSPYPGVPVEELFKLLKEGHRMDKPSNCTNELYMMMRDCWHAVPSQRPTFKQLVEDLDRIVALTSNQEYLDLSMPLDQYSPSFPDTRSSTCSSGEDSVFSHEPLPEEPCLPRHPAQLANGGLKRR
Chain of FGFR3 (P22607 23-806): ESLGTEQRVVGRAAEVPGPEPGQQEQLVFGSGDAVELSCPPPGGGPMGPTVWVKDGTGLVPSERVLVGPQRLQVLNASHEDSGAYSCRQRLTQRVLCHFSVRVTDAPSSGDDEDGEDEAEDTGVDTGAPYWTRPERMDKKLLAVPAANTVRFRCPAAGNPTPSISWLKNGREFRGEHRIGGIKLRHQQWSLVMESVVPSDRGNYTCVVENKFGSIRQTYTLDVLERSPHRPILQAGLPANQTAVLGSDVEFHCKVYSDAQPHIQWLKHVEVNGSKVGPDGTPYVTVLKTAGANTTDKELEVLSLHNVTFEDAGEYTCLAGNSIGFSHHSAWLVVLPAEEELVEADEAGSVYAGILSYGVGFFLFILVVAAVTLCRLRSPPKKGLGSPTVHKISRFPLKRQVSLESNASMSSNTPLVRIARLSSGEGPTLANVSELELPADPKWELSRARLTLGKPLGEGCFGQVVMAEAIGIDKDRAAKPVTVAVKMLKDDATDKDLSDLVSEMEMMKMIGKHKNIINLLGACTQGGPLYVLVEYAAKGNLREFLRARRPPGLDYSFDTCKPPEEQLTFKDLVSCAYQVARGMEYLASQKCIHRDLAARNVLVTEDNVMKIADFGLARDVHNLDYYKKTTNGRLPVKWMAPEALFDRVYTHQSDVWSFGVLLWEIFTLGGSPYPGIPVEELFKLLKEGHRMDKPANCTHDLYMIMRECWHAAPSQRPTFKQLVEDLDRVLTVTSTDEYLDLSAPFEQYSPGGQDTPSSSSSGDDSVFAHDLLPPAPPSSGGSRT
Chain of FGFR4 (P22455 22-802): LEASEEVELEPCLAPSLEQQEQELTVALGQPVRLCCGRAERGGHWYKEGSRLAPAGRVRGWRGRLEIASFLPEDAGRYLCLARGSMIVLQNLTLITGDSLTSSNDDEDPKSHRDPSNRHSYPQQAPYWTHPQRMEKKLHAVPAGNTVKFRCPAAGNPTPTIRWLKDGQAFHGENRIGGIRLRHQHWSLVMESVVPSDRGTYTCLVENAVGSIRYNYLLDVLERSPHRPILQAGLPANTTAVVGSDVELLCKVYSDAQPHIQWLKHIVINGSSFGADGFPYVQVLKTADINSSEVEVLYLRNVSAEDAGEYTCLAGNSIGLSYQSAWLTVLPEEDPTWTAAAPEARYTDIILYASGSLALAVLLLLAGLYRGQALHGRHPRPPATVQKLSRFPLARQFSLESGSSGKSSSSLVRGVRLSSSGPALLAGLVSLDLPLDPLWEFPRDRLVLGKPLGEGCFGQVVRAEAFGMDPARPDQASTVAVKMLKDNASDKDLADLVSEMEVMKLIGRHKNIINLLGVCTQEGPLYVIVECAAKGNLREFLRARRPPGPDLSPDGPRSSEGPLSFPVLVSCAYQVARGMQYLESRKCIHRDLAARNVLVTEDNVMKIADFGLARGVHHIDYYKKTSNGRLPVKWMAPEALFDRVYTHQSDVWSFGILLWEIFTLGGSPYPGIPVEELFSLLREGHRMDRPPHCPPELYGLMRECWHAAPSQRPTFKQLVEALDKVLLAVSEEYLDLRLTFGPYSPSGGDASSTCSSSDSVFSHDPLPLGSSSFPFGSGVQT
Chain of FGFR2 (P21802 22-821): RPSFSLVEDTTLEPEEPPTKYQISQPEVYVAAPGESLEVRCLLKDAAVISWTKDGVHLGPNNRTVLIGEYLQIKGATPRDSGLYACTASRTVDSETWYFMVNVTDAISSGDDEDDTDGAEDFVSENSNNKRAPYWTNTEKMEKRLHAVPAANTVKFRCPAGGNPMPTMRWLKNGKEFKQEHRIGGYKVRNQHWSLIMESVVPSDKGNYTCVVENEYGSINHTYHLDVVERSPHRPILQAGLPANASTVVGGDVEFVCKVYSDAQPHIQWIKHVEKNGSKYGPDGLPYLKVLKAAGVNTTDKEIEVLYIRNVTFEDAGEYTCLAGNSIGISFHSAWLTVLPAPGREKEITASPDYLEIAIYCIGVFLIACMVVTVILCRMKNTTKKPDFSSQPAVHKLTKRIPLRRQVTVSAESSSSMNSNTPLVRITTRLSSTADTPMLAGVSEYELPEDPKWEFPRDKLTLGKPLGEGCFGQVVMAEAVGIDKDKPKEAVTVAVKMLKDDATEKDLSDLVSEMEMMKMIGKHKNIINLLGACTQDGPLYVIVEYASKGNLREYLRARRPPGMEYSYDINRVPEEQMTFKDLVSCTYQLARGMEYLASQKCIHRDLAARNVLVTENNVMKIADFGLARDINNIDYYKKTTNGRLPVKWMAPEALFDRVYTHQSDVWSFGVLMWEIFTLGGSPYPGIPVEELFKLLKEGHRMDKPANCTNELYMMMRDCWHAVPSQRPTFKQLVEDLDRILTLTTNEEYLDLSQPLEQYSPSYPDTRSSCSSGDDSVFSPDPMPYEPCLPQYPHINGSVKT

IC50 (FGFR1) | IC50 (FGFR2) | IC50 (FGFR3) | IC50 (FGFR4) | SMILES | IC50 (Hep3B) | IC50 (RT112/84) | IC50 (DMS114) | IC50 (AN3CA) | IC50 (SNU-16)
5.4 nM | 5.5 nM | 18 nM | 175 nM | C=CC(=O)N1CC[C@H](Nc2ncc3cc(-c4c(Cl)c(OC)cc(OC)c4Cl)ccc3n2)C1 [Compound 5, (S)-1-(3-((6-(2,6-dichloro-3,5-dimethoxyphenyl)quinazolin-2-yl)amino)pyrrolidin-1-yl)propyl-2-en-1-one] | 153 nM | 56 nM | 58 nM | – | –
15 nM | 15 nM | 34 nM | 68 nM | C=CC(=O)N1C[C@@H](C)[C@H](Nc2ncc3cc(-c4c(Cl)c(OC)cc(OC)c4Cl)ccc3n2)C1 [Compound 20, 1-((3S,4R)-3-((6-(2,6-dichloro-3,5-dimethoxyphenyl)quinazolin-2-yl)amino)-4-methylpyrrolidin-1-yl)propyl-2-en-1-one] | 50.2 nM | 77 nM | 113 nM | – | –
4.6 nM | 4.4 nM | 19 nM | 101 nM | C=CC(=O)N1C[C@@H](Nc2ncc3cc(-c4c(Cl)c(OC)cc(OC)c4Cl)ccc3n2)C[C@H]1CO [Compound 22, 1-((2S,4S)-4-((6-(2,6-dichloro-3,5-dimethoxyphenyl)quinazolin-2-yl)amino)-2-(hydroxymethyl)pyrrolidin-1-yl)prop-2-en-1-one] | 32.2 nM | 40 nM | 25 nM | 59 nM | 11 nM

Second part, the molecule before the results:

SMILES | IC50 (FGFR1) | IC50 (FGFR2) | IC50 (FGFR3) | IC50 (FGFR4) | IC50 (Hep3B) | IC50 (RT112/84) | IC50 (DMS114) | IC50 (AN3CA) | IC50 (SNU-16)
C=CC(=O)N1C[C@@H](Nc2ncc3cc(-c4c(Cl)c(OC)cc(OC)c4Cl)ccc3n2)C[C@@H]1CO [Compound 23] | – | – | – | – | 26 nM | 50 nM | 31 nM | 86 nM | 22 nM
C=CC(=O)N1C[C@@H](Nc2ncc3cc(-c4c(Cl)c(OC)cc(OC)c4Cl)ccc3n2)C[C@H]1CF [Compound 24, 1-((2S,4S)-4-((6-(2,6-dichloro-3,5-dimethoxyphenyl)quinazolin-2-yl)amino)-2-(fluoromethyl)pyrrolidin-1-yl)prop-2-en-1-one] | – | – | – | – | 46 nM | 153 nM | – | – | 48 nM
C=CC(=O)N1CC2(CC(Nc3ncc4cc(-c5c(Cl)c(OC)cc(OC)c5Cl)ccc4n3)C2)C1 [Compound 65, 1-(6-((6-(2,6-dichloro-3,5-dimethoxyphenyl)quinazolin-2-yl)amino)-2-azaspiro[3.3]heptan-2-yl)prop-2-en-1-one] | – | – | – | – | 66 nM | 161 nM | – | – | 92 nM
